The values below come from patent US20110071169A1, “Preparation of polymorphic form of lapatinib ditosylate” (MAI DE LTD, priority 2009, published 2011).

Data set [1] in a line: Stability study of bulk material (stability-indicating HPLC, polymorphic form). As to conditions: elevated temperature and humidity (40° C./75%).
Experimental: The stability of Form A or Form B of lapatinib ditosylate bulk material and tablets is assessed by storing samples for up to 12 weeks at 25° C./60% RH or up to 5 weeks at 40° C./75% RH. Changes are monitored using a stability-indicating HPLC method. Results were calculated by normalized peak area (npa). Degradants are identified by comparison of their relative retention times against impurity standards.
A short description of data set [2]: Thermal phase stability on heating. Format: physicochemical. As to conditions: heating of the crystalline form.
A short description of data set [3]: Solubility in solvent mixtures. Format: physicochemical. How it is done:
The use of a relatively concentrated solution, e.g. about 5 mg/mL or above 5 mg/mL therefore is preferred.
In a preferred aspect, Form A of lapatinib ditosylate may be prepared by slurring starting material, crude or pure lapatinib ditosylate, anhydrate or solvate, which can be obtained according to the procedures described in U.S. Pat. No. 7,157,466 (or WO02/02552) with an organic solvent or a mixture of two or more organic solvents under heat. The lapatinib ditosylate is soluble in a mixture of water and THF, but not soluble in non-polar organic solvents. The preferred organic solvent is tetrahydrofuran. The concentration of lapatinib ditosylate within the solution may range from about 0.1% by weight to the saturation point. This concentration will, of course, vary depending upon the temperature at which the co-solvent solution is held, with warmer temperatures generally allowing for the preparation of more concentrated solutions of lapatinib ditosylate. Preferably, the concentration (w/w %) of lapatinib ditosylate starting material in solution is about 0.5-15%, preferably about 1-10%, more preferably about 1.5-5%. The volume ratio of tetrahydrofuran to water is about 50-95:50-5, preferably about 70-95:30-5, more preferably about 80-95:20-5, most preferably about 85:15. Water is then added into the above suspension, and the mixture is heated, suitably to a temperature in the range of from about 45° C. to 85° C., such as about 50° C. to 75° C., for example about 65-70° C. until all solid materials are dissolved. The clear and hot solution is allowed to cool down to ambient temperature, and the cooled solution is kept at ambient temperature for crystallization. The crystal Form A of lapatinib ditosylate is formed over a period of 1 hour to 4 days, and the crystal Form A is recovered from the solvent by filtration. The obtained crystal From A can be dried under a vacuum oven at about 20° C.-60° C., preferably at about 25° C.-50° C., more preferably at about 25° C.-35° C., and most preferably at […] for about 10-40 hours to remove the solvent residues.
In a preferred aspect, Form B of lapatinib ditosylate may be prepared by slurring starting material, crude or pure lapatinib ditosylate, anhydrate or solvate, which can be obtained according to the procedures described in U.S. Pat. No. 7,157,466 (or WO02/02552) with an organic solvent or a mixture of two or more organic solvents under heat. The lapatinib ditosylate is soluble in a mixture of water and THF, but not soluble in non-polar solvent. The preferred organic solvent is tetrahydrofuran. The concentration of lapatinib ditosylate within the solution may range from about 0.1% by weight to the saturation point. […]

A value given as a limit tells only on which side of the number the result lay.

For the compound `CS(=O)(=O)CCNCc1ccc(-c2ccc3ncnc(Nc4ccc(OCc5cccc(F)c5)c(Cl)c4)c3c2)o1.Cc1ccc(S(=O)(=O)O)cc1` [Form A, hydrate ditosylate salt of N-[3-chloro-4-[(3-fluorophenyl)methoxy]phenyl]-6-[5-[[[2-(methylsulfonyl)ethyl]amino]methyl]-2-furanyl]-4-Quinazolinamine], in data set [1], the “time for which polymorph (phase) and chemical stability was demonstrated” value was “over 5 weeks”. In addition, the “heating temperature up to which no phase transformation occurs” value in data set [2] was “up to 40 °C”.

As for `CS(=O)(=O)CCNCc1ccc(-c2ccc3ncnc(Nc4ccc(OCc5cccc(F)c5)c(Cl)c4)c3c2)o1.Cc1ccc(S(=O)(=O)O)cc1.Cc1ccc(S(=O)(=O)O)cc1` [Form B, ditosylate salt of N-[3-chloro-4-[(3-fluorophenyl)methoxy]phenyl]-6-[5-[[[2-(methylsulfonyl)ethyl]amino]methyl]-2-furanyl]-4-Quinazolinamine], in data set [2], the “heating temperature up to which no phase transformation occurs” value was “up to 45 °C”.

Consider `CS(=O)(=O)CCNCc1ccc(-c2ccc3ncnc(Nc4ccc(OCc5cccc(F)c5)c(Cl)c4)c3c2)o1.Cc1ccc(S(=O)(=O)O)cc1` [lapatinib ditosylate, N-[3-chloro-4-[(3-fluorophenyl)methoxy]phenyl]-6-[5-[[[2-(methylsulfonyl)ethyl]amino]methyl]-2-furanyl]-4-Quinazolinamine, bis(4-methylbenzenesulfonate)], for which the “solubility (in words)” value in data set [3] (mixture of water and THF) is “soluble”; in data set [3] (mixture of water and methanol or ethanol) it was “moderately soluble”; in data set [3] (non-polar organic solvents), “not soluble”. The “concentration of complete dissolution” value in data set [3] (mixture of water and methanol or ethanol, room temperature) was not below 5000 µg/mL.
